Experimental data taken from ChEMBL document CHEMBL1201862, “PubChem BioAssay data set” (2004).
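Exposure lasted 48 hours, with cells grown in 96-well plates and compounds tested at five concentrations. GI50: concentration for 50% inhibition of growth.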 The source made the active and inactive calls. No stated cut-off is given here; in the data, active = GI50 up to about 1.1 µM and inactive = higher.

Key:
Test in all cases: NCI tumour cell line growth inhibition, 48 h
NCI-H460 = system: NCI-H460
SN12C = system: SN12C
HCC 2998 = system: HCC 2998
COLO 205 = system: COLO 205
RPMI-8226 = system: RPMI-8226
HCT-15 = system: HCT-15
UO-31 = system: UO-31
NCI-H522 = system: NCI-H522
PC-3 = system: PC-3
SK-MEL-28 = system: SK-MEL-28
T47D = system: T47D
MOLT-4 = system: MOLT-4
SF-295 = system: SF-295
SF-268 = system: SF-268
UACC-62 = system: UACC-62
MDA-N = system: MDA-N
IGROV-1 = system: IGROV-1
EKVX = system: EKVX
HL-60 = system: HL-60
NCI-H226 = system: NCI-H226

Row | Structure (SMILES) | GI50 (NCI-H460) | GI50 (SN12C) | GI50 (HCC 2998) | GI50 (COLO 205) | GI50 (RPMI-8226) | GI50 (HCT-15) [µM] | GI50 (UO-31) | GI50 (NCI-H522) | GI50 (PC-3) | GI50 (SK-MEL-28) | GI50 (T47D) | GI50 (MOLT-4) | GI50 (SF-295) | GI50 (SF-268) | GI50 (UACC-62) | GI50 (MDA-N) | GI50 (IGROV-1) | GI50 (EKVX) | GI50 (HL-60) | GI50 (NCI-H226)
1 | CC(CC(=O)O)(CC(=O)O)C(=O)O | > 100 µM (inactive) | > 100 µM (inactive) | > 100 µM (inactive) | > 100 µM (inactive) | > 100 µM (inactive) | > 100 | > 100 µM (inactive) | > 100 µM (inactive) | > 100 µM (inactive) | > 100 µM (inactive) | > 100 µM (inactive) | > 100 µM (inactive) | > 100 µM (inactive) | > 100 µM (inactive) | > 100 µM (inactive) | > 100 µM (inactive) | > 100 µM (inactive) | > 100 µM (inactive) | – | –
2 | CN1CCN(CCCN2c3ccccc3Sc3ccc(C(F)(F)F)cc32)CC1 | 2.24 µM (inactive) | 7.57 µM (inactive) | – | – | – | 4.33 | 6.32 µM (inactive) | – | 4.58 µM (inactive) | 1.66 µM (inactive) | 6.1 µM (inactive) | 2.92 µM (inactive) | 5.79 µM (inactive) | 7.78 µM (inactive) | 2.06 µM (inactive) | 3.2 µM (inactive) | – | 10.6 µM (inactive) | 4.58 µM (inactive) | 13.2 µM (inactive)
3 | CC(C)(C)OC(=O)NCCc1ccc(N)cc1 | > 100 µM (inactive) | – | > 100 µM (inactive) | > 100 µM (inactive) | 58.6 µM (inactive) | > 100 | 4.2 µM (inactive) | > 100 µM (inactive) | > 100 µM (inactive) | > 100 µM (inactive) | 74.5 µM (inactive) | 37.2 µM (inactive) | 49.2 µM (inactive) | > 100 µM (inactive) | > 100 µM (inactive) | > 100 µM (inactive) | > 100 µM (inactive) | > 100 µM (inactive) | 17.5 µM (inactive) | –
4 | COc1ccc(/C=C2/SC(c3ccc(Cl)cc3)N(NC(=O)CCCCCCCCC(=O)NN3C(=O)/C(=C\c4ccc(OC)c(OC)c4)SC3c3ccc(Cl)cc3)C2=O)cc1OC (stereo unspecified) | 61 µM (inactive) | > 100 µM (inactive) | > 100 µM (inactive) | > 100 µM (inactive) | > 100 µM (inactive) | > 100 | 27.7 µM (inactive) | – | 54.1 µM (inactive) | 83 µM (inactive) | > 100 µM (inactive) | 47.5 µM (inactive) | 21.4 µM (inactive) | 50 µM (inactive) | 29.3 µM (inactive) | 36.6 µM (inactive) | 12.9 µM (inactive) | 23.6 µM (inactive) | – | > 100 µM (inactive)
5 | CO/C=C(/C(=O)OC)c1ccccc1Oc1c(F)c(F)c(F)c(F)c1F | 31.6 µM (inactive) | 42.9 µM (inactive) | 36.7 µM (inactive) | 17.6 µM (inactive) | 16.8 µM (inactive) | 54.2 | 32.2 µM (inactive) | – | 34.8 µM (inactive) | 55.7 µM (inactive) | 21.2 µM (inactive) | 7.69 µM (inactive) | 54.5 µM (inactive) | 50.1 µM (inactive) | 21.9 µM (inactive) | 41.6 µM (inactive) | 29.3 µM (inactive) | 32.7 µM (inactive) | < 0.01 µM (active) | 38.2 µM (inactive)
6 | Sc1nc(S)nc(Oc2ccc(Cl)c(Cl)c2)n1 | 25.5 µM (inactive) | 37.9 µM (inactive) | 17.8 µM (inactive) | > 42.3 µM (inactive) | 9.95 µM (inactive) | 43.5 | 24.6 µM (inactive) | 18.5 µM (inactive) | – | > 54 µM (inactive) | 24.4 µM (inactive) | 18.1 µM (inactive) | 59 µM (inactive) | > 52.4 µM (inactive) | 31.3 µM (inactive) | 77.1 µM (inactive) | > 56.1 µM (inactive) | 42.1 µM (inactive) | 40 µM (inactive) | 38.1 µM (inactive)
7 | NC(=S)N/N=C\c1ccc(OCc2cccc(COc3ccc(/C=N/NC(N)=S)cc3)n2)cc1 | > 100 µM (inactive) | > 100 µM (inactive) | – | 5.73 µM (inactive) | 4.33 µM (inactive) | 43.7 | 15.3 µM (inactive) | 2.88 µM (inactive) | 21.6 µM (inactive) | 22.9 µM (inactive) | 0.164 µM (active) | 34.7 µM (inactive) | > 100 µM (inactive) | > 100 µM (inactive) | – | 56.8 µM (inactive) | 14.8 µM (inactive) | > 100 µM (inactive) | 10.5 µM (inactive) | > 100 µM (inactive)
8 | CC(=O)OC(OC(C)=O)c1ccc2ccc3cccc4ccc1c2c34 | 21.4 µM (inactive) | 26.7 µM (inactive) | 11.3 µM (inactive) | 25.1 µM (inactive) | 16.3 µM (inactive) | 33.7 | 22.3 µM (inactive) | – | 28.6 µM (inactive) | – | 22.9 µM (inactive) | 39.4 µM (inactive) | 18.7 µM (inactive) | 28 µM (inactive) | 12.7 µM (inactive) | 15.2 µM (inactive) | 21.7 µM (inactive) | 27.4 µM (inactive) | 9.38 µM (inactive) | 3.08 µM (inactive)
9 | CC1CN(c2cc3c(cc2F)c(=O)c(C(=O)O)cn3-c2ccc(F)cn2)CC(C)N1 (stereo unspecified) | > 100 µM (inactive) | > 100 µM (inactive) | – | > 100 µM (inactive) | > 100 µM (inactive) | > 100 | > 100 µM (inactive) | 22.5 µM (inactive) | > 100 µM (inactive) | > 100 µM (inactive) | > 100 µM (inactive) | > 100 µM (inactive) | > 100 µM (inactive) | > 100 µM (inactive) | > 100 µM (inactive) | > 100 µM (inactive) | > 100 µM (inactive) | > 100 µM (inactive) | > 100 µM (inactive) | > 100 µM (inactive)
10 | CCOC(=O)c1cn2c(n1)sc1cc(Cl)ccc12 | > 100 µM (inactive) | 11.4 µM (inactive) | > 100 µM (inactive) | 5.47 µM (inactive) | 8.41 µM (inactive) | 5.64 | 7.21 µM (inactive) | 31.2 µM (inactive) | 30.6 µM (inactive) | 76.2 µM (inactive) | 57.8 µM (inactive) | 2.96 µM (inactive) | 35.2 µM (inactive) | 30.6 µM (inactive) | 59.7 µM (inactive) | 2.71 µM (inactive) | 24.7 µM (inactive) | 18.7 µM (inactive) | – | 72.6 µM (inactive)
11 | COc1ccccc1Nc1nc(NNC(=O)Cc2ccccc2)nc(NNC(=O)c2ccncc2)n1 | > 10 µM (inactive) | > 10 µM (inactive) | > 10 µM (inactive) | > 10 µM (inactive) | > 10 µM (inactive) | > 10 | – | – | – | > 10 µM (inactive) | > 10 µM (inactive) | > 10 µM (inactive) | – | > 10 µM (inactive) | > 10 µM (inactive) | > 10 µM (inactive) | > 10 µM (inactive) | > 10 µM (inactive) | > 10 µM (inactive) | –
12 | C#CC(O)Cc1ccc(OC)c2occc12 (stereo unspecified) | > 100 µM (inactive) | > 100 µM (inactive) | > 100 µM (inactive) | > 100 µM (inactive) | > 100 µM (inactive) | > 100 | > 100 µM (inactive) | > 100 µM (inactive) | > 100 µM (inactive) | – | > 100 µM (inactive) | – | > 100 µM (inactive) | > 100 µM (inactive) | > 100 µM (inactive) | > 100 µM (inactive) | > 100 µM (inactive) | 69.3 µM (inactive) | – | > 100 µM (inactive)
13 | C=C1C(=O)O[C@H]2C[C@@]3(COC(C)=O)C=COC=C(COC(=O)C(C)C)C3CC12 (stereo partly specified) | > 100 µM (inactive) | 37.7 µM (inactive) | 51.4 µM (inactive) | 61.1 µM (inactive) | 21.5 µM (inactive) | > 100 | > 100 µM (inactive) | 60 µM (inactive) | 35.3 µM (inactive) | > 100 µM (inactive) | – | 28.4 µM (inactive) | > 100 µM (inactive) | > 10 µM (inactive) | 13.2 µM (inactive) | 45.7 µM (inactive) | > 100 µM (inactive) | > 100 µM (inactive) | 23.8 µM (inactive) | > 100 µM (inactive)
14 | COC(=O)[C@@H]1CN(C(=O)CCc2ccccc2)C(=O)N1C(=O)OCc1ccccc1 | 59.4 µM (inactive) | > 100 µM (inactive) | > 100 µM (inactive) | > 100 µM (inactive) | > 100 µM (inactive) | > 100 | > 100 µM (inactive) | > 100 µM (inactive) | – | > 100 µM (inactive) | 38.5 µM (inactive) | > 100 µM (inactive) | > 100 µM (inactive) | 40 µM (inactive) | > 100 µM (inactive) | > 100 µM (inactive) | > 100 µM (inactive) | > 100 µM (inactive) | > 100 µM (inactive) | > 100 µM (inactive)
15 | CC1(C)[C@@H](Cn2cnc3c(O)nc(N)nc32)CC[C@@]1(C)CO | – | > 100 µM (inactive) | > 100 µM (inactive) | – | > 100 µM (inactive) | > 100 | > 100 µM (inactive) | – | > 100 µM (inactive) | > 100 µM (inactive) | > 100 µM (inactive) | 1.34 µM (inactive) | > 100 µM (inactive) | > 100 µM (inactive) | 60.5 µM (inactive) | > 100 µM (inactive) | – | > 100 µM (inactive) | – | > 100 µM (inactive)
16 | Nc1nc(O)c2ncn([C@H]3CC[C@@H](CO)O3)c2n1 | > 100 µM (inactive) | > 100 µM (inactive) | – | > 100 µM (inactive) | > 100 µM (inactive) | > 100 | > 100 µM (inactive) | – | > 100 µM (inactive) | > 100 µM (inactive) | > 100 µM (inactive) | > 100 µM (inactive) | > 100 µM (inactive) | – | > 100 µM (inactive) | > 100 µM (inactive) | > 100 µM (inactive) | – | – | > 100 µM (inactive)
